Measurements taken from article PMC6934184, “Selective DNA-PKcs inhibition extends the therapeutic index of localized radiotherapy and chemotherapy” (The Journal of Clinical Investigation, 2019).

Target: T1, CLK3 (Homo sapiens, UniProt P49761)
T1 construct: purchased Thermo Fisher Scientific (Life Technologies) SelectScreen
Test: SelectScreen Z'LYTE
Assay type: biochemical
Procedure, shortened: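 Compound tested in SelectScreen activity assays, Z'LYTE for CSF1R, CDK1/cyclin B and MAP2K6 and Adapta for CAMK1. ATP for CAMK1 was listed as 10, and Km app was used for CSF1R. Results are expressed in percent.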

T1 sequence (P49761 whole entry): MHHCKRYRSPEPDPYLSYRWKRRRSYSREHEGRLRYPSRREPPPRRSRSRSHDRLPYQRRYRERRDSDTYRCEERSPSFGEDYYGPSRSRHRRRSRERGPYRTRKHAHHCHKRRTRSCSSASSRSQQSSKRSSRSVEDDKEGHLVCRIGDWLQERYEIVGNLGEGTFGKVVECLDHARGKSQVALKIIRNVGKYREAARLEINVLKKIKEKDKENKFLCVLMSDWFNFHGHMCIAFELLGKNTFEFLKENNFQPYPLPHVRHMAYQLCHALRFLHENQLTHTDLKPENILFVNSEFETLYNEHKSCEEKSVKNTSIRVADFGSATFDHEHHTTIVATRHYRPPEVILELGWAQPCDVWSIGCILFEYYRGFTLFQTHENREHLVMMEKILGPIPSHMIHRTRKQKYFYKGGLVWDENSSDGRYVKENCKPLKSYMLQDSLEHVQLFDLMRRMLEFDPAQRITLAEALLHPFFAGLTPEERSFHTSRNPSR

## CN(C(=O)CN1CCOCC1)c1ccc2sc3c(-c4cccc5c(=O)cc(N6CC7CCC(C6)O7)oc45)cccc3c2c1 [NU5455]
  inhibition at 1 µM: -0.5%
